Values quoted from earlier work, collected in US9532875B2, “Combined space maintenance and bone regeneration system for the reconstruction of large osseous defects” (WILLIAM MARSH RICE UNIVERSITY, priority 2010, dated 2017).

System: susceptible species
Conditions: reported

Colistin sulfate salt
minimum inhibitory concentrations (MICs): 0.5 to 5 µg/mL
